Test results reported in patent publication US11884710B2, “Peptide compounds and methods of use in wound healing” (priority 2013, dated 2024).
Square brackets hold non-standard residues; d marks the D form. Peptide text beside a SMILES is read from it. PEG2 = NCCOCCOCCC(=O)O

Columns and labels:
Escherichia coli = test: In vitro bactericidal activity against Escherichia coli; type: cell-based; conditions: E. coli; inoculum 1×10^6 CFU/ml; 60 to 180 minute incubation
Experimental: (§1) In vitro bactericidal activity: The three peptide compounds BCC01-5RMP (SEQ ID NO:23), BCC002-5RMP (SEQ ID NO:21), and BCC003-5RMP (SEQ ID NO:22) were assayed for in vitro bactericidal activity against Pseudomonas aeruginosa, Escherichia coli, Salmonella typhimurium, and Acinetobacter baumannii. The starting inoculum for all experiments was 1×10^6 colony forming units (CFU)/ml. The CFU remaining at the end of 60 to 180 minute incubation was determined, and the data plotted as a log reduction in CFU/ml.

[1] = test system: Pseudomonas clinical isolate B64; test: BIOSCREEN C growth assay, peptide plus antibiotic combinations; type: cell-based, Pseudomonas aeruginosa
Experimental: FIGS. 28A and 28B show the effect of BCC002-5R-MP (SEQ ID NO:21) in combination with Cefotaxime on MIC using Pseudomonas clinical isolate B64. Cefotaxime (Cefo) and peptide combinations included a constant amount of Cefotaxime (2.81 μg/ml) with suboptimal amounts of peptide (0, 0.34, 1.01, and 3.04 μg/ml). […] FIG. 28B is a histogram showing Fractional area (FA), which is an indication of the MIC.
FIG. 29B is a histogram showing Fractional area (FA), which is an indication of the MIC.
FIGS. 30A and 30B show the effect of BCC02-5R-MP (SEQ ID NO:21) in combination with Levofloxacin (Levo) and peptide combinations included a constant amount of Levofloxacin (3.6 μg/ml) with suboptimal amounts of peptide (0, 0.34, 1.01, 3.04 μg/ml). […] FIG. 30B is a histogram showing Fractional area (FA), which is an indication of the MIC.
The peptide and antibiotics were set up in the wells of the microtiter plate at starting ratios of MIC equivalents of antibiotic:peptide at 3:1, 1:1, and 1:3. They were serially diluted to concentrations well below suboptimal/sublethal levels of the antibiotic and peptide. The organism was added (1×10^5 CFU/well), the BIOSCREEN C™ assay (Growth Systems USA, Piscataway, N.J.) was performed, and data was collected over 24 hours.

[2] = test system: release of TNF-α from LPS-stimulated RAW264.7 cells; test: LPS neutralization: TNF-α release from LPS-stimulated RAW264.7 cells; type: cell-based, mouse
Experimental: (§2) The well-characterized response of RAW264.7 macrophage cells was used to produce tumor necrosis-factor-alpha (TNF-α) in response to LPS to determine whether the peptides could dampen the release of this cytokine. […] Importantly, pre-treatment (3 hours prior to LPS addition) as well as post-treatment of the RAW264.7 cells (3 hours post LPS addition) with peptide dampened the cytokine release. […] The finding that the novel peptides bind and neutralize the effect of Pseudomonas LPS is of critical importance since this ensures that the novel therapeutic peptide compounds described herein will not only kill the bacteria, but will also neutralize the LPS endotoxin released by the bacteria which plays such an important role in the rapid progression of sepsis.
(§3) BCC01-5RMP (SEQ ID NO:23), BCC002-5RMP (SEQ ID NO:21), and BCC003-5RMP (SEQ ID NO:22) were tested for their ability to bind lipopolysaccharide (LPS) using the limulus amebocyte lysate method (LAL). […] There was no statistical difference in their ability to bind LPS using the LAL technique. The ability of the peptides to neutralize LPS was assessed by determining their ability to attenuate the release of tumor necrosis factor-alpha (TNF-α) from LPS-stimulated RAW264.7 cells (a mouse macrophage cell line). […] No significant differences were observed between the three peptides to neutralize LPS as measured by cytokine release. Peptides based on sequence 120-146 (SEQ ID NOS:28-31) also bind and neutralize Pseudomonas LPS.

Acinetobacter baumannii = test: In vitro bactericidal activity against Acinetobacter baumannii; type: cell-based; conditions: inoculum 1×10^6 CFU/ml, 60 to 180 minute incubation
Experimental: as §1

Salmonella typhimurium = test: In vitro bactericidal activity against Salmonella typhimurium; type: cell-based; conditions: inoculum 1×10^6 CFU/ml, 60 to 180 minute incubation
Experimental: as §1

[3] = test system: P. aeruginosa (ATCC 27853); test: Mouse model of Pseudomonas (bacterial) keratitis; type: in vivo; conditions: C57/BL6 mice; topical peptide 0.25 to 0.75 mg/ml; 48 hours post-infection
Experimental: A circular wound was created on the mouse cornea by removing the epithelium and infected with 10^5 colony forming units (CFU) of P. aeruginosa (ATCC® 27853™ (American Type Culture Collection, Manassas, Va.)). Infected wounds were treated with saline (0.9% sodium chloride, vehicle control) or saline containing indicated concentrations of peptide every 15 minutes for 2 hours, then every 30 minutes for 3 hours on the first day. Infected wounds were treated twice on the second day and once on the third day. Mice were killed at 48 hours post-infection, and CFU/eye were quantified. The means were plotted and are representative of 5 to 9 mice per group. Mann Whitney test was performed for each group as compared to the saline control group. *P=0.014. In compound names such as BCC02-5RMP used herein, “R” represents arginine, and “MP” represents a small PEG molecule as defined elsewhere herein (such as, for example but not by way of limitation, “AEEP”).
(§4) A circular wound was created on the mouse cornea by removing the epithelium, and the wound was infected with 10^5 CFU of P. aeruginosa (ATCC® 27853™ (American Type Culture Collection, Manassas, Va.)). Infected wounds were treated with saline or saline containing indicated concentrations (2, 5, 10, and 20 mg/ml) of peptide every 30 minutes for 6 hours on the first day. Infected wounds were treated twice on the second day and once on the third day. Mice were killed at 48 hours post-infection, and the CFU/eye were quantified. The means are plotted and are representative of 5 mice per group. Mann Whitney test was performed for each group as compared to the saline control group. *P=0.015 and **P=0.097.
as §4, with “representative of 4 to 5 mice” for “representative of 5 mice”, “control group.” for “control group. *P=0.015 and **P=0.097.”
as §4, with “group. **P=0.0079 by” for “group.”, “test” for “test was performed for each group”, “group.” for “group. *P=0.015 and **P=0.097.”
A circular wound (2 mm) was created on the mouse cornea by removing the epithelium and infecting the wound with 10^5 CFU of P. aeruginosa (ATCC® 27853™ (American Type Culture Collection, Manassas, Va.)). Infected wounds were treated with saline or saline containing indicated concentrations of peptide every 15 minutes for 2 hours, then every 30 minutes for 3 hours on the first day. […] Mice were killed at 48 hours post-infection, and the colony forming units per eye (CFU/eye) were quantified. […]

Pseudomonas LPS = test: LPS binding, Limulus Amebocyte Lysate (LAL) assay; conditions: LAL method
Experimental: as §2, §3

P. aeruginosa ATCC 27853 = type: cell-based, Pseudomonas aeruginosa; conditions: Pseudomonas; inoculum 1×10^6 CFU/ml; 60 to 180 minute incubation
Experimental: as §1
Table 4 further compares the activity of several other compounds, including the “5R” versions of BCC01, i.e., SEQ ID NO:20 (which comprises SEQ ID NO: 7 with five additional arginines), the “5R” version of BCC002 (i.e., SEQ ID NO:18, which comprises SEQ ID NO: 1 with five additional arginines), and the 5RMP versions of BCC01 (SEQ ID NO: 23) and BCC002 (SEQ ID NO: 21). The data generally indicate the superiority of BCC003-5RMP (SEQ ID NO:22) and BCC002-5RMP (SEQ ID NO: 21) and the superiority of the 5R or 5RMP versions of the peptide over the “AEEP only” peptide against P. aeruginosa.

SMILES	in vitro bactericidal activity, in words (Escherichia coli)	sensitivity of the bacterium to Cefotaxime with peptide, in words ([1]; 3.04 μg/ml of peptide with Cefotaxime 2.81 μg/ml)	effect of peptide on the killing effect of Cefotaxime, in words ([1]; 0.34 and 1.0 μg/ml of peptide with Cefotaxime 2.81 μg/ml)	neutralization of LPS: attenuation of TNF-α release [2]	in vitro bactericidal activity, in words (Acinetobacter baumannii)	in vitro bactericidal activity, in words (Salmonella typhimurium)	CFU/eye, in words [3]	binding of Pseudomonas LPS (Pseudomonas LPS)	in vitro bactericidal activity, in words (P. aeruginosa ATCC 27853)
CC[C@H](C)[C@H](NC(=O)[C@H](CC(C)C)NC(=O)[C@H](C)NC(=O)CNC(=O)CNC(=O)[C@H](CO)NC(=O)[C@H](Cc1ccccc1)NC(=O)[C@H](Cc1c[nH]cn1)NC(=O)[C@H](CCCNC(=N)N)NC(=O)CNC(=O)[C@H](CCC(N)=O)NC(=O)[C@H](CC(N)=O)NC(=O)[C@H](CCCNC(=N)N)NC(=O)[C@H](CCCNC(=N)N)NC(=O)[C@H](CCCNC(=N)N)NC(=O)[C@H](CCCNC(=N)N)NC(=O)CCOCCOCCNC(=O)CCOCCOCCN)C(=O)N[C@@H](Cc1c[nH]cn1)C(=O)N[C@@H](C)C(=O)N[C@@H](CCCNC(=N)N)C(=O)N[C@@H](Cc1ccccc1)C(=O)N[C@H](C(=O)N[C@@H](CCSC)C(=O)N[C@H](C(=O)N[C@@H](C)C(=O)N[C@@H](C)C(=O)N[C@@H](CO)C(=O)N[C@@H](CS)C(=O)N[C@@H](Cc1ccccc1)C(=O)N[C@@H](CCC(N)=O)C(=O)N[C@@H](CCCNC(=N)N)C(=O)O)[C@@H](C)O)C(C)C [BCC02-5RMP] (H-[PEG2][PEG2]RRRRNQGRHFSGGALIHARFVMTAASCFQR-OH; C-terminus assumed)	strong, but lesser activity	now sensitive	no statistical effect	attenuate the release of TNF-α	most active	strong, but lesser activity	effectively killed all bacteria and cured the infection	bound Pseudomonas LPS	most active
CC[C@H](C)[C@H](NC(=O)[C@H](CC(C)C)NC(=O)[C@H](C)NC(=O)CNC(=O)CNC(=O)[C@H](CS)NC(=O)[C@H](Cc1ccccc1)NC(=O)[C@H](Cc1c[nH]cn1)NC(=O)[C@H](CCCNC(=N)N)NC(=O)CNC(=O)[C@H](CCC(N)=O)NC(=O)[C@H](CC(N)=O)NC(=O)[C@H](CCCNC(=N)N)NC(=O)[C@H](CCCNC(=N)N)NC(=O)[C@H](CCCNC(=N)N)NC(=O)[C@H](CCCNC(=N)N)NC(=O)CCOCCOCCNC(=O)CCOCCOCCN)C(=O)N[C@@H](Cc1c[nH]cn1)C(=O)N[C@@H](C)C(=O)N[C@@H](CCCNC(=N)N)C(=O)N[C@@H](Cc1ccccc1)C(=O)N[C@H](C(=O)N[C@@H](CCSC)C(=O)N[C@H](C(=O)N[C@@H](C)C(=O)N[C@@H](C)C(=O)N[C@@H](CO)C(=O)N[C@@H](CO)C(=O)N[C@@H](Cc1ccccc1)C(=O)N[C@@H](CCC(N)=O)C(=O)N[C@@H](CCCNC(=N)N)C(=O)O)[C@@H](C)O)C(C)C [BCC03-5RMP] (H-[PEG2][PEG2]RRRRNQGRHFCGGALIHARFVMTAASSFQR-OH)	strong, but lesser activity			attenuate the release of TNF-α	most active	strong, but lesser activity		bound Pseudomonas LPS	most active
